Data published in ChEMBL document CHEMBL3885861, “Open TG-GATES”.

Species on record: Rattus norvegicus
Experiment: Open TG-GATES - Regimen: Daily Repeat
Assay type: toxicity, organism-based, Sprague-Dawley
Set-up: regimen Daily Repeat, gender Male, age 6 weeks
Conditions: in vivo, po, route gavage; for Bas / Eos / Fbg / Ht / MCHC / Mono / Plat / RBC / Ret / WBC / MCV: tissue Blood; for KIDNEY_L / KIDNEY_R / KIDNEY_TOTAL: tissue Kidney; for ALT / AST / CRE / DBIL / GLC / IP / K / LDH / PL / RALB / TBIL / TC / TG / TP / gamma-GTP: tissue Plasma
[1] = 0 mg/kg, 72 h, dose level Control, time 3 day
[2] = 0 mg/kg, […], dose level Control, time 7 day
[3] = 0 mg/kg, […], dose level Control, time 14 day
[4] = 0 mg/kg, […], dose level Control, time 28 day
[5] = 10 mg/kg, 72 h, dose level Low, time 3 day
[6] = 10 mg/kg, […], dose level Low, time 7 day
[7] = 10 mg/kg, […], dose level Low, time 14 day
[8] = 10 mg/kg, […], dose level Low, time 28 day

## CC(C)OC(=O)C(C)(C)Oc1ccc(C(=O)c2ccc(Cl)cc2)cc1 [FENOFIBRATE]
[1]
  TERMINAL_BW: 218.5 g
  Bas: 0.2%
  Eos: 1.2%
  Fbg: 275 mg/dL
  Ht: 39.9%
  MCHC: 33%
  Mono: 3.2%
  Plat: 108.4 x10_4/uL
  RBC: 625.4 x10_4/ul
  Ret: 7.7%
  WBC: 80.3 x10_2/uL
  KIDNEY_L: 1 g
  KIDNEY_R: 0.9 g
  KIDNEY_TOTAL: 1.9 g
  ALT: 44.4 IU/L
  AST: 69 IU/L
  CRE: 0.2 mg/dL
  DBIL: 0.014 mg/dL
  GLC: 180.4 mg/dL
  IP: 8.3 mg/dL
  K: 4.3 meq/L
  LDH: 75.2 IU/L
  PL: 150.2 mg/dL
  RALB: 2.6 g/dL
  TBIL: 0.042 mg/dL
  TC: 76.8 mg/dL
  TG: 86 mg/dL
  TP: 5.6 g/dL
  gamma-GTP: 1.2 IU/L
[2]
  TERMINAL_BW: 254.4 g
  Bas: 0%
  Eos: 1%
  Fbg: 310.4 mg/dL
  Ht: 41.5%
  MCHC: 32.7%
  Mono: 2.8%
  Plat: 113.6 x10_4/uL
  RBC: 650 x10_4/ul
  Ret: 6.1%
  WBC: 94.9 x10_2/uL
  KIDNEY_L: 1.1 g
  KIDNEY_R: 1.1 g
  KIDNEY_TOTAL: 2.1 g
  ALT: 47.8 IU/L
  AST: 72.2 IU/L
  CRE: 0.2 mg/dL
  DBIL: 0.012 mg/dL
  GLC: 187.8 mg/dL
  IP: 7.9 mg/dL
  K: 4.3 meq/L
  LDH: 89.6 IU/L
  PL: 147.8 mg/dL
  RALB: 2.7 g/dL
  TBIL: 0.036 mg/dL
  TC: 72.2 mg/dL
  TG: 122.6 mg/dL
  TP: 5.8 g/dL
  gamma-GTP: 1 IU/L
[3]
  TERMINAL_BW: 310.8 g
  Bas: 0%
  Eos: 1%
  Fbg: 309.8 mg/dL
  Ht: 43.2%
  MCHC: 33.2%
  Mono: 2.2%
  Plat: 111 x10_4/uL
  RBC: 692.6 x10_4/ul
  Ret: 4.5%
  WBC: 81.5 x10_2/uL
  KIDNEY_L: 1.2 g
  KIDNEY_R: 1.2 g
  KIDNEY_TOTAL: 2.4 g
  ALT: 40.8 IU/L
  AST: 65.8 IU/L
  CRE: 0.2 mg/dL
  DBIL: 0.014 mg/dL
  GLC: 188.2 mg/dL
  IP: 7.5 mg/dL
  K: 4.3 meq/L
  LDH: 106.6 IU/L
  PL: 144.8 mg/dL
  RALB: 2.7 g/dL
  TBIL: 0.038 mg/dL
  TC: 64.6 mg/dL
  TG: 188 mg/dL
  TP: 5.9 g/dL
  gamma-GTP: 1 IU/L
[4]
  TERMINAL_BW: 390.8 g
  Bas: 0.4%
  Eos: 1.2%
  Fbg: 270.6 mg/dL
  Ht: 45.9%
  MCHC: 33.9%
  MCV: 59.2 fL
  Mono: 2.2%
  Plat: 101.9 x10_4/uL
  RBC: 774.4 x10_4/ul
  Ret: 2.5%
  WBC: 107.1 x10_2/uL
  KIDNEY_L: 1.3 g
  KIDNEY_R: 1.3 g
  KIDNEY_TOTAL: 2.5 g
  ALT: 40.2 IU/L
  AST: 65.8 IU/L
  CRE: 0.2 mg/dL
  DBIL: 0.012 mg/dL
  GLC: 186 mg/dL
  IP: 7.1 mg/dL
  K: 3.6 meq/L
  LDH: 90 IU/L
  PL: 142 mg/dL
  RALB: 2.8 g/dL
  TBIL: 0.042 mg/dL
  TC: 71.4 mg/dL
  TG: 117.8 mg/dL
  TP: 6.3 g/dL
  gamma-GTP: 1.2 IU/L
[5]
  TERMINAL_BW: 221.1 g
  Bas: 0.4%
  Eos: 1.4%
  Fbg: 269.8 mg/dL
  Ht: 39.2%
  MCHC: 33.1%
  Mono: 3%
  Plat: 113.1 x10_4/uL
  RBC: 620.2 x10_4/ul
  Ret: 7.2%
  WBC: 80.5 x10_2/uL
  KIDNEY_L: 1 g
  KIDNEY_R: 1 g
  KIDNEY_TOTAL: 2 g
  ALT: 49 IU/L
  AST: 76.6 IU/L
  CRE: 0.2 mg/dL
  DBIL: 0.012 mg/dL
  GLC: 182.8 mg/dL
  IP: 8.3 mg/dL
  K: 4.1 meq/L
  LDH: 74 IU/L
  PL: 148.8 mg/dL
  RALB: 2.6 g/dL
  TBIL: 0.04 mg/dL
  TC: 80.4 mg/dL
  TG: 52.4 mg/dL
  TP: 5.6 g/dL
  gamma-GTP: 1.2 IU/L
[6]
  TERMINAL_BW: 253.9 g
  Bas: 0.2%
  Eos: 1%
  Fbg: 280.8 mg/dL
  Ht: 41%
  MCHC: 33.1%
  Mono: 2.2%
  Plat: 136.5 x10_4/uL
  RBC: 646.8 x10_4/ul
  Ret: 6.2%
  WBC: 99.8 x10_2/uL
  KIDNEY_L: 1.1 g
  KIDNEY_R: 1.1 g
  KIDNEY_TOTAL: 2.1 g
  ALT: 45.2 IU/L
  AST: 72.8 IU/L
  CRE: 0.2 mg/dL
  DBIL: 0.01 mg/dL
  GLC: 187.2 mg/dL
  IP: 8.1 mg/dL
  K: 4.4 meq/L
  LDH: 101.2 IU/L
  PL: 131.8 mg/dL
  RALB: 2.7 g/dL
  TBIL: 0.026 mg/dL
  TC: 65.6 mg/dL
  TG: 74.2 mg/dL
  TP: 5.8 g/dL
  gamma-GTP: 1 IU/L
[7]
  TERMINAL_BW: 314.5 g
  Bas: 0%
  Eos: 1%
  Fbg: 309.6 mg/dL
  Ht: 42.6%
  MCHC: 33.5%
  Mono: 3%
  Plat: 123.9 x10_4/uL
  RBC: 687.6 x10_4/ul
  Ret: 4.5%
  WBC: 88.4 x10_2/uL
  KIDNEY_L: 1.3 g
  KIDNEY_R: 1.3 g
  KIDNEY_TOTAL: 2.6 g
  ALT: 39.8 IU/L
  AST: 64 IU/L
  CRE: 0.2 mg/dL
  DBIL: 0.014 mg/dL
  GLC: 193.2 mg/dL
  IP: 7.7 mg/dL
  K: 4.3 meq/L
  LDH: 84 IU/L
  PL: 132.4 mg/dL
  RALB: 2.7 g/dL
  TBIL: 0.03 mg/dL
  TC: 57.2 mg/dL
  TG: 124.8 mg/dL
  TP: 6 g/dL
  gamma-GTP: 0.8 IU/L
[8]
  TERMINAL_BW: 385.8 g
  Bas: 0%
  Eos: 1.2%
  Fbg: 267 mg/dL
  Ht: 44.6%
  MCHC: 33.7%
  MCV: 57.9 fL
  Mono: 2.4%
  Plat: 105.5 x10_4/uL
  RBC: 770.4 x10_4/ul
  Ret: 2.1%
  WBC: 88.4 x10_2/uL
  KIDNEY_L: 1.5 g
  KIDNEY_R: 1.5 g
  KIDNEY_TOTAL: 2.9 g
  ALT: 40.2 IU/L
  AST: 63.2 IU/L
  CRE: 0.2 mg/dL
  DBIL: 0.01 mg/dL
  GLC: 187.6 mg/dL
  IP: 7.2 mg/dL
  K: 4.2 meq/L
  LDH: 101.6 IU/L
  PL: 136.2 mg/dL
  RALB: 2.8 g/dL
  TBIL: 0.028 mg/dL
  TC: 64.6 mg/dL
  TG: 100 mg/dL
  TP: 6.4 g/dL
  gamma-GTP: 1 IU/L
